Experimental findings from ChEMBL document CHEMBL3507680, “University of Dundee, Gates Library screen for HepG2 cell viability” are described below.

This series is described as follows: Human HepG2 cell viability assay in 384 well format. The settings on record: HepG2 cells, read-out: Inhibition. The arrangement: dose 125 nL, time 70.5 hour; cytotoxicity at 70.5 h: concentration not given beside the values. The class given is toxicity, cell-based.
With `Cc1nn(C)c(C)c1C(=O)NCc1cc(N(C)C)nc2ccccc12`, the cytotoxicity at 70.5 h was determined as 27.3%. With `O=C(NC1CC1)C1CN(c2nc3ccccc3s2)CCN1` (stereo not given), the cytotoxicity at 70.5 h was -7.94%. With `CC(C)Oc1cccc(C(=O)C2CCCN(C(=O)c3ccoc3)C2)c1` (stereo not given), the cytotoxicity at 70.5 h was -9.57%. Consider `O=C(NCc1ccccn1)C1=NN(c2ccccc2)C(=O)CN1`, for which the cytotoxicity at 70.5 h was -16.4%.

Consider `Cn1ncc2c(NC3CN4CCC3CC4)nc(-c3ccncc3)nc21` (stereo not given), for which the cytotoxicity at 70.5 h was found to be 12%.

Regarding `CCc1oc(C(=O)OC)cc1Cn1cccc(C(F)(F)F)c1=O`, the cytotoxicity at 70.5 h was -1.62%. Regarding `NC(=O)CC1CCCN(c2cncc(SCc3ccccc3)n2)C1` (stereo not given), the cytotoxicity at 70.5 h was -1.35%. As to `c1cc(C2CCN(Cc3nc(-c4ccsc4)no3)CC2)[nH]n1`, the cytotoxicity at 70.5 h is -3.49%. Consider `Cc1cc(-c2ccccc2)nc(C2CCCN2S(C)(=O)=O)n1` (stereo not given), for which the cytotoxicity at 70.5 h is -5.33%.

As to `COc1c(C2CCCN2C(=O)c2ccc(C#N)c(C)n2)c(C)nn1C` (stereo not given), the cytotoxicity at 70.5 h is -8.97%. With `CCN(Cc1nc2c(cnn2C)c(=O)[nH]1)c1cc(C)cc(C)c1` the figure was 9.75%; with `O=C(CCc1cc2n(n1)CCCNC2)NCCS(=O)(=O)N1CCCC1`, 21.6%. `COc1cc(C)ccc1OCCC(=O)N1CCCC1Cn1cccn1` (stereo not given): the cytotoxicity at 70.5 h was -3.24%.

Turning to `O=C(O)CSc1nnc(-c2ccn[nH]2)n1-c1cccc(C(F)(F)F)c1`, the cytotoxicity at 70.5 h was -4.2%. For the compound `O=C(c1ccc[nH]1)N1CCCC(c2cc(C(F)(F)F)[nH]n2)C1` (stereo not given), the cytotoxicity at 70.5 h was -0.878%. As to `CS(=O)(=O)N1C[C@@H]2CC[C@H](C1)N(C/C=C/c1ccc(F)cc1)C2`, the cytotoxicity at 70.5 h was -4.45%. `O=C(c1ccco1)N1CC[C@@H]2O[C@@H](COCC3CCOCC3)CC[C@@H]21`: the cytotoxicity at 70.5 h came to 11.4%. Regarding `Cc1nc(C)c2c(n1)CCN(Cc1nccn1C)CC2`, the cytotoxicity at 70.5 h was -8.56%.

For the compound `O=C1CCCN1c1cccc(CNCc2nc(-c3ccco3)no2)c1`, the cytotoxicity at 70.5 h was -17.4%. The same measure for `COc1ccccc1CN(Cc1nc2c(cnn2C)c(=O)[nH]1)C1CC1`: 28.9%. With `Cc1csc(NC(=O)c2cnc(C3CCCN3)cn2)n1` (stereo not given), the cytotoxicity at 70.5 h was -13.1%. In the case of `CCN(CC(=O)N(C)C)C(=O)c1ccc(-c2nc(C)cs2)cc1`, the cytotoxicity at 70.5 h is -4.36%. With `CCn1nc(C)cc1S(=O)(=O)N1CCC2(CCCN(C(C)C)C2=O)C1` (stereo not given) the figure was -1.6%. In the case of `Cc1ccccc1CC(=O)N1CCCn2cncc2C1`, the cytotoxicity at 70.5 h was -9.13%.

With `O=C1CC(NS(=O)(=O)N2CCOCC2)CN1Cc1ccccc1` (stereo not given), the cytotoxicity at 70.5 h was -5.68%. `CC(NC(=O)N(C)Cc1ccc(Cl)s1)c1ccccn1` (stereo not given): the cytotoxicity at 70.5 h was determined as 1.2%. In the case of `Cc1cc(C(=O)NCC2SCCc3ccccc32)no1` (stereo not given), the cytotoxicity at 70.5 h is -14.4%. With `CN1CCOC(CNCc2coc(-c3ccccc3)n2)C1` (stereo not given) the figure was -0.149%; with `CCc1ccc(CN2CC[C@@H]3CN(S(C)(=O)=O)CCO[C@@H]3C2)o1`, -3.27%. Turning to `Cc1nc(C(C)NC(=O)COc2ccc(F)cc2)n[nH]1` (stereo not given), the cytotoxicity at 70.5 h is -7.22%. Regarding `CCCNC(=O)CCNC(=O)Cc1nc(-c2ccco2)oc1C`, the cytotoxicity at 70.5 h was -4.05%. As to `Cc1ccc(Cl)c(CN2CCC(c3nccn3C(C)C)CC2)c1F`, the cytotoxicity at 70.5 h is -1.48%. For `COCCC1COC2(CCN(C(=O)c3ccco3)CC2)C1` (stereo not given), the cytotoxicity at 70.5 h was -5.74%. The same measure for `CS(=O)(=O)N1CCO[C@@H]2CCN(Cc3ccncc3)CC[C@H]21`: -6.06%; for `CCN(CCOC)C(=O)CCc1scnc1C`: -2.82%; for `N#Cc1cccc(S(=O)(=O)NC(=O)CCOCC(F)(F)F)c1`: -3.71%.

As for `CC(C)=CCN1CCN(Cc2cc(C)c(O)c(C)c2)CC1CCO` (stereo not given), the cytotoxicity at 70.5 h is 9.39%. On to `Cc1ccc(C(CNCc2c[nH]nc2C)N(C)C)cc1` (stereo not given), for which the cytotoxicity at 70.5 h amounted to 11.2%. With `CC(C)c1ncncc1C(=O)NCCN1CCCCCC1` the figure was -0.207%. Regarding `Cc1ccncc1C(=O)N1CC[C@@]2(O)CCN(C3CCCCC3)C[C@H]2C1`, the cytotoxicity at 70.5 h was -3.63%.

As to `COCc1c(Cl)cccc1NC(=O)CNC(=O)C(C)(C)C`, the cytotoxicity at 70.5 h was -4.66%. On to `COc1cn(CC(=O)N2CCN(c3ccc(F)cc3)CC2)c(C)cc1=O`, for which the cytotoxicity at 70.5 h was determined as 27.9%.

Consider `CC(C)c1cc(NCC2(Cn3cccn3)CC2)n2nccc2n1`, for which the cytotoxicity at 70.5 h is 5.08%. For `CCN(CC)C(=O)c1ccc(CNc2cncc(-n3cccn3)n2)cc1`, the cytotoxicity at 70.5 h is -7.26%. On to `COc1ccc(F)cc1S(=O)(=O)N1CCC(Oc2ccc(Cl)cn2)CC1`, for which the cytotoxicity at 70.5 h is -3.49%. In the case of `CCc1nccn1-c1cncc(C2CCCN2Cc2cccnc2)n1` (stereo not given), the cytotoxicity at 70.5 h is -5.1%. Regarding `CCOc1ccc(N2CCCN=C2NC(=O)c2ccc(OC)cc2)cc1`, the cytotoxicity at 70.5 h was -9.82%.

As to `Cc1cnn(CC2CN(Cc3nc(-c4ccoc4)no3)CCO2)c1` (stereo not given), the cytotoxicity at 70.5 h is -18.2%.

With `CCO[C@H]1C[C@@H](O)C12CCN(C1CCN(c3ccccc3C)CC1)CC2`, the cytotoxicity at 70.5 h is 3.61%. The same measure for `O=C(CC1CC1)N1CCCC2(CCC(=O)N2CC2CC2)CC1` (stereo not given): -8.2%; for `OCCN1CCCCC1c1cc[nH]n1` (stereo not given): -8.74%; for `O=C(O)c1cccc(N2CCC(Oc3cccc(F)c3)CC2)n1`: -7%. With `Cc1nc(CO[C@@H]2CN(Cc3ccsc3)[C@@H]3COC[C@@H]32)cs1` the figure was -6.52%; with `COCCS(=O)(=O)c1ncc(CN(C)CC(C)C)n1Cc1ccccc1`, -1.85%; with `Cc1ccc(CNC(=O)C2CCCCN2C(=O)OC(C)(C)C)cn1` (stereo not given), -3.38%. `CCN(CC)CC1CCN(Cc2ccn(C)c(=O)c2)CC1`: the cytotoxicity at 70.5 h was -4.81%. Turning to `CC(C)Cc1noc(CN(C)c2ncccn2)n1`, the cytotoxicity at 70.5 h was -3.77%. As for `CCN1CCN(C(=O)CCc2c(C)noc2Cl)CC1`, the cytotoxicity at 70.5 h was -13.8%. For the compound `Cc1cccc(CO[C@@H]2C[C@H]3CN(c4ncccn4)CCN3C2)n1`, the cytotoxicity at 70.5 h is -1.58%. Take `CCOC(=O)CNC(=O)Cn1c(-c2ccoc2)nc(C)c1C`: the cytotoxicity at 70.5 h came out at 3.16%.

Turning to `Cn1cc(CN2C[C@@H](NC(=O)c3cscn3)[C@H]3OCCC[C@H]32)cn1`, the cytotoxicity at 70.5 h was -8.57%. Consider `CCc1cc(N2CCC(NCCc3nc(C)c(C)s3)CC2)nc(C)n1`, for which the cytotoxicity at 70.5 h was -12.2%.

In the case of `CCCC(=O)N1CCCC(c2cc3cccnc3c(O)n2)C1` (stereo not given), the cytotoxicity at 70.5 h is -13.1%. With `COCCNC(=O)c1cccnc1Oc1ccc(Cl)cc1` the figure was -7.58%; with `O=C(Nc1ccc(F)cc1)N1CCC(CO)(Nc2ccccc2)CC1`, 0.526%; with `CCOC(=O)c1ccc(CNC(=O)c2ccon2)o1`, 14.2%. With `O=C(C1CC1)N1CCc2[nH]cnc2C12CCN(C1CCOCC1)CC2`, the cytotoxicity at 70.5 h is -2.02%.

As for `Cc1nc(CN2CCC(CNC(=O)Nc3ccccc3)CC2)oc1C`, the cytotoxicity at 70.5 h is -6.72%. Take `CC1CCN(c2nc3ncc4c(c3c(=O)[nH]2)CC(C)(C)CC4=O)CC1`: the cytotoxicity at 70.5 h is -4.25%. In the case of `Oc1cccc(CNC2CCN(CCc3ccncc3)CC2)c1`, the cytotoxicity at 70.5 h is -1.4%.
